biological target: T1, Recombinant Human ENPP-2/Autotaxin (Homo sapiens, UniProt Q13822); assay: LysoPLD activity measurement (autotaxin enzyme inhibition, choline release, TOOS reagent); type: biochemical; conditions: LysoPLD inhibitory activity; substrate 14:0 LysoPC; absorbance at 555 nm
T1 construct: purchased R&D systems 5255-EN
Procedure, shortened: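 Enzyme and compound were preincubated for 30 min before adding 14:0 LysoPC substrate, diluted to 300 μM, for 90 minutes at 37° C. The choline product was quantified colorimetrically with TOOS reagent. Wells without compound held 1% DMSO.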

IC50 [nM] | Compound
10 to 100 | O=C(O)c1c(F)ccc(Cn2c(=O)n(-c3ccc(N4CCOCC4)cc3)c3c(F)c(Cl)ccc32)c1F [Example 204, 3-((5-chloro-4-fluoro-3-(4-morpholinophenyl)-2-oxo-2,3-dihydro-1H-benzo[d]imidazol-1-yl)methyl)-2,6-difluorobenzoic acid]
10 to 100 | O=C(O)c1c(F)ccc(Cn2c(=O)n(-c3ccc(N4CCOCC4)cc3)c3cc(Cl)ccc32)c1F [Example 205, 3-((5-chloro-3-(4-morpholinophenyl)-2-oxo-2,3-dihydro-1H-benzo[d]imidazol-1-yl)methyl)-2,6-difluorobenzoic acid]
10 to 100 | CN(C)c1ccc(-n2c(=O)n(C3(c4cccc(C(=O)O)c4)CC3)c3ccc(C(F)(F)F)cc32)cc1 [Example 206, 3-(1-(3-(4-(dimethylamino)phenyl)-2-oxo-5-(trifluoromethyl)-2,3-dihydro-1H-benzo[d]imidazol-1-yl)cyclopropyl)benzoic acid]
< 10 | O=C(O)c1cccc(C2(n3c(=O)n(-c4ccc(N5CCOCC5)cc4)c4cc(C(F)(F)F)ccc43)CC2)c1 [Example 207, 3-(1-(3-(4-morpholinophenyl)-2-oxo-5-(trifluoromethyl)-2,3-dihydro-1H-benzo[d]imidazol-1-yl)cyclopropyl)benzoic acid]
10 to 100 | CN(C)c1ccc(-n2c(=O)n(C3(c4cccc(C(=O)O)c4)CC3)c3ccc(OC(F)(F)F)cc32)cc1 [Example 208, 3-(1-(3-(4-(dimethylamino)phenyl)-2-oxo-5-(trifluoromethoxy)-2,3-dihydro-1H-benzo[d]imidazol-1-yl)cyclopropyl)benzoic acid]
10 to 100 | O=C(O)c1cccc(C2(n3c(=O)n(-c4ccc(N5CCOCC5)cc4)c4cc(OC(F)(F)F)ccc43)CC2)c1 [Example 209, 3-(1-(3-(4-morpholinophenyl)-2-oxo-5-(trifluoromethoxy)-2,3-dihydro-1H-benzo[d]imidazol-1-yl)cyclopropyl)benzoic acid]

Continued, compound first:

Compound | IC50 [nM]
O=C(O)c1cc(F)cc(C2(n3c(=O)n(-c4ccc(N5CC6(CCC6)C5)cc4)c4cc(Cl)ccc43)CC2)c1 [Example 196, 3-(1-(3-(4-(2-azaspiro[3.3]heptan-2-yl)phenyl)-5-chloro-2-oxo-2,3-dihydro-1H-benzo[d]imidazol-1-yl)cyclopropyl)-5-fluorobenzoic acid] | 10 to 100
O=C(O)c1cc(F)cc(C2(n3c(=O)n(-c4ccc(N5CCC(F)(F)CC5)cc4)c4cc(Cl)ccc43)CC2)c1 [Example 197, 3-(1-(5-chloro-3-(4-(4,4-difluoropiperidin-1-yl)phenyl)-2-oxo-2,3-dihydro-1H-benzo[d]imidazol-1-yl)cyclopropyl)-5-fluorobenzoic acid] | < 10
O=C(O)c1cc(Cn2c(=O)n(-c3ccc(N4CCOCC4)cc3)c3c(F)c(Cl)ccc32)on1 [Example 198, 5-((5-chloro-4-fluoro-3-(4-morpholinophenyl)-2-oxo-2,3-dihydro-1H-benzo[d]imidazol-1-yl)methyl)isoxazole-3-carboxylic acid] | 100 to 1000
O=C(O)c1coc(Cn2c(=O)n(-c3ccc(N4CCOCC4)cc3)c3c(F)c(Cl)ccc32)n1 [Example 199, 2-((5-chloro-4-fluoro-3-(4-morpholinophenyl)-2-oxo-2,3-dihydro-1H-benzo[d]imidazol-1-yl)methyl)oxazole-4-carboxylic acid] | 100 to 1000
O=C(O)c1cc(Cn2c(=O)n(-c3ccc(N4CCOCC4)cc3)c3c(F)c(Cl)ccc32)cc(F)c1F [Example 202, 5-((5-chloro-4-fluoro-3-(4-morpholinophenyl)-2-oxo-2,3-dihydro-1H-benzo[d]imidazol-1-yl)methyl)-2,3-difluorobenzoic acid] | 10 to 100
O=C(O)c1cc(Cn2c(=O)n(-c3ccc(N4CCOCC4)cc3)c3cc(Cl)ccc32)cc(F)c1F [Example 203, 5-((5-chloro-3-(4-morpholinophenyl)-2-oxo-2,3-dihydro-1H-benzo[d]imidazol-1-yl)methyl)-2,3-difluorobenzoic acid] | 10 to 100
